# Measured values: the supplement of paper PMC10307832
# Key:
# Experiment in all cases: relative viability (nuclei count vs DMSO), 5 days (fraction); higher = more cells survive
# Vorinostat + Decitabine = compound: O=C(CCCCCCC(=O)Nc1ccccc1)NO [Vorinostat] + Nc1ncn([C@H]2C[C@H](O)[C@@H](CO)O2)c(=O)n1 [Decitabine] (partner 2 µM)
# How it was run: (§1)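 Five library-drug doses in √10 steps were combined with a fixed anchor-drug dose, or a single drug was given alone, by pin tool to lung cancer cell lines in 1536-well plates the day after seeding. Nuclei were stained and counted after 5 days. Relative viability is the nuclei count in treated wells over that in vehicle wells, taken as the median of duplicate plates.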
# Vorinostat + AZD7762 = compound: O=C(CCCCCCC(=O)Nc1ccccc1)NO [Vorinostat] + NC(=O)Nc1cc(-c2cccc(F)c2)sc1C(=O)N[C@H]1CCCNC1 [AZD7762] (partner 0.2 µM)
# How it was run: as §1
# Vorinostat + Trametinib = compound: O=C(CCCCCCC(=O)Nc1ccccc1)NO [Vorinostat] + CC(=O)Nc1cccc(-n2c(=O)n(C3CC3)c(=O)c3c(Nc4ccc(I)cc4F)n(C)c(=O)c(C)c32)c1 [Trametinib] (partner 0.02 µM)
# How it was run: as §1
# Vorinostat + Pictilisib = compound: O=C(CCCCCCC(=O)Nc1ccccc1)NO [Vorinostat] + CS(=O)(=O)N1CCN(Cc2cc3nc(-c4cccc5[nH]ncc45)nc(N4CCOCC4)c3s2)CC1 [Pictilisib] (partner 1 µM)
# How it was run: as §1
# Vorinostat + Pemetrexed = compound: O=C(CCCCCCC(=O)Nc1ccccc1)NO [Vorinostat] + Nc1nc2[nH]cc(CCc3ccc(C(=O)N[C@@H](CCC(=O)O)C(=O)O)cc3)c2c(=O)[nH]1 [Pemetrexed] (partner 0.2 µM)
# How it was run: as §1
cell line,measurement,setting,value
LU99A,relative viability,Vorinostat + Decitabine; first compound 0.253 µM,0.949
same,relative viability,Vorinostat + Decitabine; first compound 0.8 µM,0.702
same,relative viability,Vorinostat + Decitabine; first compound 2.53 µM,0.389
same,relative viability,Vorinostat + Decitabine; first compound 8 µM,0.156
same,relative viability,Vorinostat + AZD7762; first compound 0.253 µM,0.279
same,relative viability,Vorinostat + AZD7762; first compound 0.8 µM,0.198
same,relative viability,Vorinostat + AZD7762; first compound 2.53 µM,0.15
same,relative viability,Vorinostat + AZD7762; first compound 8 µM,0.0946
same,relative viability,Vorinostat + Trametinib; first compound 0.253 µM,0.614
same,relative viability,Vorinostat + Trametinib; first compound 0.8 µM,0.54
same,relative viability,Vorinostat + Trametinib; first compound 2.53 µM,0.33
same,relative viability,Vorinostat + Trametinib; first compound 8 µM,0.138
same,relative viability,Vorinostat + Pictilisib; first compound 0.253 µM,0.264
same,relative viability,Vorinostat + Pictilisib; first compound 0.8 µM,0.278
same,relative viability,Vorinostat + Pictilisib; first compound 2.53 µM,0.154
same,relative viability,Vorinostat + Pictilisib; first compound 8 µM,0.141
same,relative viability,Vorinostat + Pemetrexed; first compound 0.253 µM,0.14
same,relative viability,Vorinostat + Pemetrexed; first compound 0.8 µM,0.182
same,relative viability,Vorinostat + Pemetrexed; first compound 2.53 µM,0.162
same,relative viability,Vorinostat + Pemetrexed; first compound 8 µM,0.112
NCI-H1993,relative viability,Vorinostat + Decitabine; first compound 0.253 µM,0.704
same,relative viability,Vorinostat + Decitabine; first compound 0.8 µM,0.65
same,relative viability,Vorinostat + Decitabine; first compound 2.53 µM,0.465
same,relative viability,Vorinostat + Decitabine; first compound 8 µM,0.16
same,relative viability,Vorinostat + AZD7762; first compound 0.253 µM,0.817
same,relative viability,Vorinostat + AZD7762; first compound 0.8 µM,0.672
same,relative viability,Vorinostat + AZD7762; first compound 2.53 µM,0.384
same,relative viability,Vorinostat + AZD7762; first compound 8 µM,0.312
same,relative viability,Vorinostat + Trametinib; first compound 0.253 µM,0.649
same,relative viability,Vorinostat + Trametinib; first compound 0.8 µM,0.61
same,relative viability,Vorinostat + Trametinib; first compound 2.53 µM,0.548
same,relative viability,Vorinostat + Trametinib; first compound 8 µM,0.36
same,relative viability,Vorinostat + Pictilisib; first compound 0.253 µM,0.911
same,relative viability,Vorinostat + Pictilisib; first compound 0.8 µM,0.919
same,relative viability,Vorinostat + Pictilisib; first compound 2.53 µM,0.801
same,relative viability,Vorinostat + Pictilisib; first compound 8 µM,0.589
same,relative viability,Vorinostat + Pemetrexed; first compound 0.253 µM,0.594
same,relative viability,Vorinostat + Pemetrexed; first compound 0.8 µM,0.492
same,relative viability,Vorinostat + Pemetrexed; first compound 2.53 µM,0.503
same,relative viability,Vorinostat + Pemetrexed; first compound 8 µM,0.344
NCI-H522,relative viability,Vorinostat + Decitabine; first compound 0.253 µM,0.632
same,relative viability,Vorinostat + Decitabine; first compound 0.8 µM,0.657
same,relative viability,Vorinostat + Decitabine; first compound 2.53 µM,0.531
same,relative viability,Vorinostat + Decitabine; first compound 8 µM,0.259
same,relative viability,Vorinostat + AZD7762; first compound 0.253 µM,0.987
same,relative viability,Vorinostat + AZD7762; first compound 0.8 µM,1.05
same,relative viability,Vorinostat + AZD7762; first compound 2.53 µM,0.834
same,relative viability,Vorinostat + AZD7762; first compound 8 µM,0.235
same,relative viability,Vorinostat + Trametinib; first compound 0.253 µM,0.93
same,relative viability,Vorinostat + Trametinib; first compound 0.8 µM,0.706
same,relative viability,Vorinostat + Trametinib; first compound 2.53 µM,0.707
same,relative viability,Vorinostat + Trametinib; first compound 8 µM,0.263
same,relative viability,Vorinostat + Pemetrexed; first compound 0.253 µM,1.22
same,relative viability,Vorinostat + Pemetrexed; first compound 0.8 µM,1.05
same,relative viability,Vorinostat + Pemetrexed; first compound 2.53 µM,1.01
same,relative viability,Vorinostat + Pemetrexed; first compound 8 µM,0.262
NCI-H1944,relative viability,Vorinostat + Decitabine; first compound 0.253 µM,0.397
same,relative viability,Vorinostat + Decitabine; first compound 0.8 µM,0.364
same,relative viability,Vorinostat + Decitabine; first compound 2.53 µM,0.259
same,relative viability,Vorinostat + Decitabine; first compound 8 µM,0.141
same,relative viability,Vorinostat + AZD7762; first compound 0.253 µM,0.328
same,relative viability,Vorinostat + AZD7762; first compound 0.8 µM,0.27
same,relative viability,Vorinostat + AZD7762; first compound 2.53 µM,0.19
same,relative viability,Vorinostat + AZD7762; first compound 8 µM,0.104
same,relative viability,Vorinostat + Trametinib; first compound 0.253 µM,0.481
same,relative viability,Vorinostat + Trametinib; first compound 0.8 µM,0.424
same,relative viability,Vorinostat + Trametinib; first compound 2.53 µM,0.292
same,relative viability,Vorinostat + Trametinib; first compound 8 µM,0.0999
same,relative viability,Vorinostat + Pictilisib; first compound 0.253 µM,0.338
same,relative viability,Vorinostat + Pictilisib; first compound 0.8 µM,0.308
same,relative viability,Vorinostat + Pictilisib; first compound 2.53 µM,0.27
same,relative viability,Vorinostat + Pictilisib; first compound 8 µM,0.18
same,relative viability,Vorinostat + Pemetrexed; first compound 0.253 µM,0.585
same,relative viability,Vorinostat + Pemetrexed; first compound 0.8 µM,0.448
same,relative viability,Vorinostat + Pemetrexed; first compound 2.53 µM,0.311
same,relative viability,Vorinostat + Pemetrexed; first compound 8 µM,0.135
NCI-H1650,relative viability,Vorinostat + Decitabine; first compound 0.253 µM,0.351
same,relative viability,Vorinostat + Decitabine; first compound 0.8 µM,0.359
same,relative viability,Vorinostat + Decitabine; first compound 2.53 µM,0.27
same,relative viability,Vorinostat + Decitabine; first compound 8 µM,0.135
same,relative viability,Vorinostat + Trametinib; first compound 0.253 µM,0.609
same,relative viability,Vorinostat + Trametinib; first compound 0.8 µM,0.542
same,relative viability,Vorinostat + Trametinib; first compound 2.53 µM,0.175
same,relative viability,Vorinostat + Trametinib; first compound 8 µM,0.0883
same,relative viability,Vorinostat + Pictilisib; first compound 0.253 µM,0.542
same,relative viability,Vorinostat + Pictilisib; first compound 0.8 µM,0.283
same,relative viability,Vorinostat + Pictilisib; first compound 2.53 µM,0.181
same,relative viability,Vorinostat + Pictilisib; first compound 8 µM,0.124
same,relative viability,Vorinostat + Pemetrexed; first compound 0.253 µM,0.307
same,relative viability,Vorinostat + Pemetrexed; first compound 0.8 µM,0.341
same,relative viability,Vorinostat + Pemetrexed; first compound 2.53 µM,0.29
same,relative viability,Vorinostat + Pemetrexed; first compound 8 µM,0.18
PC-3 [JPC-3],relative viability,Vorinostat + Decitabine; first compound 0.253 µM,0.807
same,relative viability,Vorinostat + Decitabine; first compound 0.8 µM,0.71
same,relative viability,Vorinostat + Decitabine; first compound 2.53 µM,0.429
same,relative viability,Vorinostat + Decitabine; first compound 8 µM,0.381
same,relative viability,Vorinostat + AZD7762; first compound 0.253 µM,0.834
same,relative viability,Vorinostat + AZD7762; first compound 0.8 µM,0.526
same,relative viability,Vorinostat + AZD7762; first compound 2.53 µM,0.306
same,relative viability,Vorinostat + AZD7762; first compound 8 µM,0.271
same,relative viability,Vorinostat + Trametinib; first compound 0.253 µM,0.695
same,relative viability,Vorinostat + Trametinib; first compound 0.8 µM,0.644
same,relative viability,Vorinostat + Trametinib; first compound 2.53 µM,0.405
same,relative viability,Vorinostat + Trametinib; first compound 8 µM,0.348
same,relative viability,Vorinostat + Pictilisib; first compound 0.253 µM,0.779
same,relative viability,Vorinostat + Pictilisib; first compound 0.8 µM,0.582
same,relative viability,Vorinostat + Pictilisib; first compound 2.53 µM,0.423
same,relative viability,Vorinostat + Pictilisib; first compound 8 µM,0.309
same,relative viability,Vorinostat + Pemetrexed; first compound 0.253 µM,1.1
same,relative viability,Vorinostat + Pemetrexed; first compound 0.8 µM,0.866
same,relative viability,Vorinostat + Pemetrexed; first compound 2.53 µM,0.285
same,relative viability,Vorinostat + Pemetrexed; first compound 8 µM,0.281
201T,relative viability,Vorinostat + Decitabine; first compound 0.253 µM,0.845
same,relative viability,Vorinostat + Decitabine; first compound 0.8 µM,0.874
same,relative viability,Vorinostat + Decitabine; first compound 2.53 µM,0.679
same,relative viability,Vorinostat + Decitabine; first compound 8 µM,0.266
same,relative viability,Vorinostat + AZD7762; first compound 0.253 µM,0.527
same,relative viability,Vorinostat + AZD7762; first compound 0.8 µM,0.595
same,relative viability,Vorinostat + AZD7762; first compound 2.53 µM,0.495
same,relative viability,Vorinostat + AZD7762; first compound 8 µM,0.197
same,relative viability,Vorinostat + Trametinib; first compound 0.253 µM,0.734
same,relative viability,Vorinostat + Trametinib; first compound 0.8 µM,0.735
same,relative viability,Vorinostat + Trametinib; first compound 2.53 µM,0.69
same,relative viability,Vorinostat + Trametinib; first compound 8 µM,0.267
same,relative viability,Vorinostat + Pictilisib; first compound 0.253 µM,0.741
same,relative viability,Vorinostat + Pictilisib; first compound 0.8 µM,0.605
same,relative viability,Vorinostat + Pictilisib; first compound 2.53 µM,0.522
same,relative viability,Vorinostat + Pictilisib; first compound 8 µM,0.313
same,relative viability,Vorinostat + Pemetrexed; first compound 0.253 µM,0.327
same,relative viability,Vorinostat + Pemetrexed; first compound 0.8 µM,0.323
same,relative viability,Vorinostat + Pemetrexed; first compound 2.53 µM,0.253
same,relative viability,Vorinostat + Pemetrexed; first compound 8 µM,0.25
COR-L 105,relative viability,Vorinostat + Decitabine; first compound 0.253 µM,0.588
same,relative viability,Vorinostat + Decitabine; first compound 0.8 µM,0.679
same,relative viability,Vorinostat + Decitabine; first compound 2.53 µM,0.362
same,relative viability,Vorinostat + Decitabine; first compound 8 µM,0.256
same,relative viability,Vorinostat + Trametinib; first compound 0.253 µM,0.546
same,relative viability,Vorinostat + Trametinib; first compound 0.8 µM,0.542
same,relative viability,Vorinostat + Trametinib; first compound 2.53 µM,0.343
same,relative viability,Vorinostat + Trametinib; first compound 8 µM,0.288
same,relative viability,Vorinostat + Pictilisib; first compound 0.253 µM,0.438
same,relative viability,Vorinostat + Pictilisib; first compound 0.8 µM,0.261
same,relative viability,Vorinostat + Pictilisib; first compound 2.53 µM,0.262
same,relative viability,Vorinostat + Pictilisib; first compound 8 µM,0.201
same,relative viability,Vorinostat + Pemetrexed; first compound 0.253 µM,1.21
same,relative viability,Vorinostat + Pemetrexed; first compound 0.8 µM,1.25
same,relative viability,Vorinostat + Pemetrexed; first compound 2.53 µM,0.7
same,relative viability,Vorinostat + Pemetrexed; first compound 8 µM,0.281
EMC-BAC-2,relative viability,Vorinostat + Decitabine; first compound 0.253 µM,0.958
same,relative viability,Vorinostat + Decitabine; first compound 0.8 µM,0.716
same,relative viability,Vorinostat + Decitabine; first compound 2.53 µM,0.373
same,relative viability,Vorinostat + Decitabine; first compound 8 µM,0.168
same,relative viability,Vorinostat + AZD7762; first compound 0.253 µM,1.02
same,relative viability,Vorinostat + AZD7762; first compound 0.8 µM,0.653
same,relative viability,Vorinostat + AZD7762; first compound 2.53 µM,0.447
same,relative viability,Vorinostat + AZD7762; first compound 8 µM,0.174
same,relative viability,Vorinostat + Trametinib; first compound 0.253 µM,0.836
same,relative viability,Vorinostat + Trametinib; first compound 0.8 µM,0.687
same,relative viability,Vorinostat + Trametinib; first compound 2.53 µM,0.292
same,relative viability,Vorinostat + Trametinib; first compound 8 µM,0.154
same,relative viability,Vorinostat + Pictilisib; first compound 0.253 µM,0.596
same,relative viability,Vorinostat + Pictilisib; first compound 0.8 µM,0.531
same,relative viability,Vorinostat + Pictilisib; first compound 2.53 µM,0.372
same,relative viability,Vorinostat + Pictilisib; first compound 8 µM,0.129
same,relative viability,Vorinostat + Pemetrexed; first compound 0.253 µM,0.377
same,relative viability,Vorinostat + Pemetrexed; first compound 0.8 µM,0.368
same,relative viability,Vorinostat + Pemetrexed; first compound 2.53 µM,0.26
same,relative viability,Vorinostat + Pemetrexed; first compound 8 µM,0.208
